Laboratory results taken from US20250296938A1, “Compounds that Interact with the Ras Superfamily for the Treatment of Cancers, Inflammatory Diseases, Rasopathies, and Fibrotic Disease” (SHY Therapeutics, LLC, priority 2018, published 2025).
Where two headings read alike, the source gives them in different places.

Tests used:
Test in all cases: Ras GTP binding domain inhibition assay (Cy3-GTP/Cy5-GTP competition)
[1] = biological target: T1, KRas G12D mutant (Homo sapiens, UniProt P01116, G12D); details: at 20 μM
T1 construct: fused on or other part: His tag, used for capture on nickel-coated plates
Outline: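 His-tagged Ras proteins were captured on nickel-coated wells in Buffer-I (25 mM Tris-HCl pH 7.4, 27 mM KCl, 137 mM NaCl, 1 mM MgCl2, 1 mM DTT) or Buffer-II (50 mM Tris-HCl pH 7.0). Compounds (20 μM or serial dilution, 1% DMSO) were incubated 3 h at RT, ±Sos(556-1049) in the final hour. Bound Cy3-/Cy5-GTP (100 nM, 45 min) was read after washing.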

[2] = biological target: Rac-1 (Homo sapiens, UniProt P63000)
Outline: (§1)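 Compounds tested at 20 μM or in serial dilution for IC50 against nickel-captured His-tagged GTPase, 3 hours at room temperature, with or without His-Sos GEF added for last hour. Fluorescent GTP then added at 100 nM for 45 minutes; wells washed, bound label measured by fluorescence.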

[3] = biological target: Rho-A (Homo sapiens, UniProt P61586)
Outline: as §1

[4] = with SOS, read-out: KRas G12D mutant + SOS: % inh.
[5] = without SOS, read-out: KRas G12D mutant: % inh.
[6] = with SOS, read-out: Rac-1 + SOS: % inh.
[7] = without SOS, read-out: Rac-1: % inh.
[8] = with SOS, read-out: Rho-A + SOS: % inh.
[9] = without SOS, read-out: Rho-A: % inh.

SMILES | inhibition at 20 µM [1, 4] | inhibition at 20 µM [1, 5] | inhibition at 20 µM [2, 6] | inhibition at 20 µM [2, 7] | inhibition at 20 µM [3, 8] | inhibition at 20 µM [3, 9]
COc1c(O)nc(-c2ccccn2)nc1Oc1cnn(C)c1 [drawing 938] | 51 to 75% | 51 to 75% | 76 to 100% | 76 to 100% | 51 to 75% | 51 to 75%
COc1c(O)nc(-c2ccccn2)nc1Oc1ccc2ncccc2c1 [drawing 939] | 26 to 50% | 51 to 75% | 51 to 75% | 51 to 75% | 76 to 100% | 76 to 100%
COCC1CN(c2nc(-c3nccn3C)nc3sc(-c4cccc(OC)c4F)c(-c4ccc(OC)cc4)c23)C1 [drawing 940] | 51 to 75% | 51 to 75% | 0% | 0% | 51 to 75% | 51 to 75%
COc1ccc(-c2c(-c3cccc(OC)c3F)sc3nc(-c4nccn4C)nc(N4CCC(OC)C4)c23)cc1 (stereo not drawn) [drawing 941] | 51 to 75% | 51 to 75% | 0% | 0% | 51 to 75% | 51 to 75%
Cc1cn(C)c(-c2nc(O)c3scc(-c4ccccn4)c3n2)n1 [drawing 942] | 26 to 50% | 76 to 100% | 51 to 75% | 51 to 75% | 76 to 100% | 76 to 100%
Cc1cnc(-c2nc(O)c3scc(-c4ccccn4)c3n2)n1C [drawing 943] | 1 to 25% | 51 to 75% | 51 to 75% | 1 to 25% | 51 to 75% | 51 to 75%
O=C(NC1CCC1)c1nc(-c2ccccn2)nc(O)c1O [drawing 944] | 26 to 50% | 51 to 75% | 76 to 100% | 76 to 100% | 76 to 100% | 51 to 75%
COCCN(C)C(=O)c1nc(-c2ccccn2)nc(O)c1O [drawing 945] | 1 to 25% | 1 to 25% | 51 to 75% | 51 to 75% | 26 to 50% | 26 to 50%
CC(C)CNC(=O)c1nc(-c2ccccn2)nc(O)c1O [drawing 946] | 1 to 25% | 51 to 75% | 76 to 100% | 51 to 75% | 51 to 75% | 51 to 75%
O=C(NC1CCCC1)c1nc(-c2ccccn2)nc(O)c1O [drawing 947] | 1 to 25% | 51 to 75% | 51 to 75% | 51 to 75% | 51 to 75% | 51 to 75%
COc1c(O)nc(-c2ccccn2)nc1Oc1ccccc1 [drawing 948] | 26 to 50% | 26 to 50% | 76 to 100% | 76 to 100% | 76 to 100% | 51 to 75%
COCCc1ccc(Oc2nc(-c3ccccn3)nc(O)c2OC)cc1 [drawing 949] | 26 to 50% | 51 to 75% | 76 to 100% | 51 to 75% | 76 to 100% | 76 to 100%
COc1ccc(Oc2nc(-c3ccccn3)nc(O)c2OC)cc1 [drawing 950] | 26 to 50% | 76 to 100% | 51 to 75% | 76 to 100% | 51 to 75% | 51 to 75%
Oc1nc(-c2cn3ccccc3n2)nc2c(-c3ccccn3)csc12 [drawing 951] | 1 to 25% | 26 to 50% | 26 to 50% | 1 to 25% | 1 to 25% | 1 to 25%
COC1CCN(c2nc(-c3nccn3C)nc3sc(-c4ccccc4CO)c(-c4ccccc4)c23)C1 (stereo not drawn) [drawing 952] | 51 to 75% | 51 to 75% | 0% | 0% | 26 to 50% | 0%
COC1CCN(c2nc(-c3nccn3C)nc3sc(-c4ccc(N)nc4C)c(-c4ccccc4)c23)C1 (stereo not drawn) [drawing 953] | 1 to 25% | 1 to 25% | 0% | 0% | 26 to 50% | 0%
COC1CCN(c2nc(-c3nccn3C)nc3sc(-c4ccc(CO)cc4)c(-c4ccccc4)c23)C1 (stereo not drawn) [drawing 954] | 51 to 75% | 1 to 25% | 0% | 0% | 0% | 0%
